Source: patent publication US20230406885A1, “CYCLIC PEPTIDES FOR TRAPPING INTERLEUKIN-1 BETA” (MERCK SHARP & DOHME LLC, priority 2022, published 2023)
*1 amine or outer side, *2 acyl side, *3 side chain or, on linkers, in order; H or OH if unused. Where a SMILES comes first, the peptide text is derived from it. [ ]: non-standard residue; d: D form. Phe(4-(4-Ac-piperazinyl)) = CC(=O)N1CCN(c2ccc(C[C@H](N)C(=O)O)cc2)CC1; Trp(4-Cl)(βS-Me) = C[C@@H](c1c[nH]c2cccc(Cl)c12)[C@H](N)C(=O)O; Trp(βS-Me,4-F) = C[C@@H](c1c[nH]c2cccc(F)c12)[C@H](N)C(=O)O; Bip(4'-COOH) = N[C@@H](Cc1ccc(-c2ccc(C(=O)O)cc2)cc1)C(=O)O; X1 = CC(=O)N1CCN(c2ccc(C[C@H](N[*:1])C(=O)[*:2])cn2)CC1; 1Nal(3S-Me) = C[C@@H](c1cccc2ccccc12)[C@H](N)C(=O)O; X8 = O=C([C@H](CCc1cccc(C(F)(F)F)c1)N[*:1])[*:2]; Phe(4-COOH) = N[C@@H](Cc1ccc(C(=O)O)cc1)C(=O)O; X4 = CCN[C@@H]1C[C@@H](C(=O)[*:2])N([*:1])C1; h3Pal(5-CN) = N#Cc1cncc(CC[C@H](N)C(=O)O)c1; Pro(4R-NH2) = N[C@H]1CN[C@H](C(=O)O)C1; Ala(4-THP) = N[C@@H](CC1CCOCC1)C(=O)O; AEF = NCCOc1ccc(C[C@H](N)C(=O)O)cc1; hTyr = N[C@@H](CCc1ccc(O)cc1)C(=O)O; hCha = N[C@@H](CCC1CCCCC1)C(=O)O; dDab = NCC[C@@H](N)C(=O)O; dNMeA = CN[C@H](C)C(=O)O; Nva = CCC[C@H](N)C(=O)O; Dap = NC[C@H](N)C(=O)O

What follows are compounds tested against T1, Recombinant human IL-1β (Homo sapiens, UniProt P01584) (assay: IL-6 assay in MRC5 cells: inhibition of IL-1β induced IL-6 secretion (AlphaLISA)). Conditions: inhibition of IL-1β induced IL-6 secretion in MRC5 cells; IL-1β pre-incubated 1 hour with compound; read-out: MRC5 IC50.
T1 construct: purchased BioLegend 579404
Type: cell-based
Outline: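 IL-1β at 2×EC80 in seeding medium (EMEM, 0.025% BSA) preincubated 1 h at ambient temperature with compound, then 3000 MRC5 cells/well added and incubated overnight at 37 °C, 5% CO2. IL-6 in conditioned medium quantified by AlphaLISA; IC50 from 4-parameter logistic fit.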

T1 sequence (P01584 117-269): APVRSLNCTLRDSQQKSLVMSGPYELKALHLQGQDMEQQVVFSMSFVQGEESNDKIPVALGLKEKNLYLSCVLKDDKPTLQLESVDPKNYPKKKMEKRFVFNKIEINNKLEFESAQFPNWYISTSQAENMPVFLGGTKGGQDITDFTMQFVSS

SMILES | IC50 [nM]
CC(C)C[C@@H]1NC(=O)[C@H](CCCCN)NC(=O)[C@H](Cc2ccc(-c3ccc(C(=O)O)cc3)cc2)NC(=O)CNC(=O)[C@@H](C)N(C)C(=O)[C@H](CC(=O)O)NC(=O)[C@H]([C@@H](C)c2c[nH]c3cccc(Cl)c23)NC(=O)[C@@H]2C[C@@H](N)CN2C(=O)CNC(=O)[C@H](Cc2ccc(C(=O)O)cc2)NC(=O)[C@H](Cc2c[nH]c3ccccc23)NC(=O)[C@H](Cc2ccc(-c3ccc(C(=O)O)cc3)cc2)NC(=O)[C@H](CCc2ccc(O)cc2)NC(=O)[C@@H](C)NC1=O [Example 42] (cyclo([Bip(4'-COOH)]W[Phe(4-COOH)]G[Pro(4R-NH2)][Trp(4-Cl)(βS-Me)]D[dNMeA]G[Bip(4'-COOH)]KL[dA][hTyr])) | 0.627
C[C@@H]1C(=O)NCC(=O)N[C@@H](Cc2ccc(-c3ccc(C(=O)O)cc3)cc2)C(=O)N[C@@H](CC2CCOCC2)C(=O)N[C@@H](CN)C(=O)N[C@H](C)C(=O)N[C@@H](CCc2cncc(C#N)c2)C(=O)N[C@@H](Cc2ccc(-c3ccc(C(=O)O)cc3)cc2)C(=O)N[C@@H](Cc2c[nH]c3ccccc23)C(=O)N[C@@H](Cc2ccc(C(=O)O)cc2)C(=O)NCC(=O)N2C[C@H](N)C[C@H]2C(=O)N[C@@H]([C@@H](C)c2cccc3ccccc23)C(=O)N[C@@H](CC(=O)O)C(=O)N1C [Example 23] (cyclo([Bip(4'-COOH)]W[Phe(4-COOH)]G[Pro(4R-NH2)][1Nal(3S-Me)]D[dNMeA]G[Bip(4'-COOH)][Ala(4-THP)][Dap][dA][h3Pal(5-CN)])) | 0.0112
CCN[C@@H]1C[C@H]2C(=O)N[C@@H]([C@@H](C)c3cccc4ccccc34)C(=O)N[C@@H](CC(=O)O)C(=O)N(C)[C@H](C)C(=O)NCC(=O)N[C@@H](Cc3ccc(-c4ccc(C(=O)O)cc4)cc3)C(=O)N[C@@H](Cc3c[nH]c4ccccc34)C(=O)N[C@@H](CN)C(=O)N[C@H](C)C(=O)N[C@@H](CCc3ccc(O)cc3)C(=O)N[C@@H](Cc3ccc(-c4ccc(C(=O)O)cc4)cc3)C(=O)N[C@@H](Cc3c[nH]c4ccccc34)C(=O)N[C@@H](Cc3ccc(C(=O)O)cc3)C(=O)NCC(=O)N2C1 [Example 84] (cyclo([Bip(4'-COOH)]W[Phe(4-COOH)]G[X4][1Nal(3S-Me)]D[dNMeA]G[Bip(4'-COOH)]W[Dap][dA][hTyr])) | 0.0258
CC(=O)N1CCN(c2ccc(C[C@@H]3NC(=O)[C@H](CCc4cncc(C#N)c4)NC(=O)[C@@H](C)NC(=O)[C@H](CN)NC(=O)[C@H](Cc4c[nH]c5ccccc45)NC(=O)[C@H](Cc4ccc(-c5ccc(C(=O)O)cc5)cc4)NC(=O)CNC(=O)[C@@H](C)N(C)C(=O)[C@H](CC(=O)O)NC(=O)[C@H]([C@@H](C)c4cccc5ccccc45)NC(=O)[C@@H]4C[C@@H](N)CN4C(=O)CNC(=O)[C@H](Cc4ccc(C(=O)O)cc4)NC(=O)[C@H](Cc4c[nH]c5ccccc45)NC3=O)cn2)CC1 [Example 4] (cyclo([X1]W[Phe(4-COOH)]G[Pro(4R-NH2)][1Nal(3S-Me)]D[dNMeA]G[Bip(4'-COOH)]W[Dap][dA][h3Pal(5-CN)])) | 0.0438
C[C@@H]1C(=O)NCC(=O)N[C@@H](Cc2ccc(-c3ccc(C(=O)O)cc3)cc2)C(=O)N[C@@H](Cc2c[nH]c3ccccc23)C(=O)NCC(=O)N[C@H](CCN)C(=O)N[C@@H](CCc2ccc(O)cc2)C(=O)N[C@@H](Cc2ccc(-c3ccc(C(=O)O)cc3)cc2)C(=O)N[C@@H](Cc2c[nH]c3ccccc23)C(=O)N[C@@H](Cc2ccc(C(=O)O)cc2)C(=O)NCC(=O)N2C[C@H](N)C[C@H]2C(=O)N[C@@H]([C@@H](C)c2c[nH]c3cccc(Cl)c23)C(=O)N[C@@H](CC(N)=O)C(=O)N1C [Example 56] (cyclo([Bip(4'-COOH)]W[Phe(4-COOH)]G[Pro(4R-NH2)][Trp(4-Cl)(βS-Me)]N[dNMeA]G[Bip(4'-COOH)]WG[dDab][hTyr])) | 0.0207
CCC[C@@H]1NC(=O)[C@H](CCCCN)NC(=O)[C@H](Cc2ccc(-c3ccc(C(=O)O)cc3)cc2)NC(=O)CNC(=O)[C@@H](C)N(C)C(=O)[C@H](CC(=O)O)NC(=O)[C@H]([C@@H](C)c2c[nH]c3cccc(F)c23)NC(=O)[C@@H]2C[C@@H](N)CN2C(=O)CNC(=O)[C@H](Cc2ccc(C(=O)O)cc2)NC(=O)[C@H](Cc2c[nH]c3ccccc23)NC(=O)[C@H](Cc2ccc(-c3ccc(C(=O)O)cc3)cc2)NC(=O)[C@H](CCc2ccc(O)cc2)NC(=O)[C@@H](C)NC1=O [Example 71] (cyclo([Bip(4'-COOH)]W[Phe(4-COOH)]G[Pro(4R-NH2)][Trp(βS-Me,4-F)]D[dNMeA]G[Bip(4'-COOH)]K[Nva][dA][hTyr])) | 0.0926
C[C@@H]1C(=O)NCC(=O)N[C@@H](Cc2ccc(-c3ccc(C(=O)O)cc3)cc2)C(=O)N[C@@H](Cc2c[nH]c3ccccc23)C(=O)N[C@@H](CN)C(=O)N[C@H](C)C(=O)N[C@@H](CCc2ccc(O)cc2)C(=O)N[C@@H](Cc2ccc(-c3ccc(C(=O)O)cc3)cc2)C(=O)N[C@@H](Cc2c[nH]c3ccccc23)C(=O)N[C@@H](Cc2ccc(C(=O)O)cc2)C(=O)NCC(=O)N2C[C@H](N)C[C@H]2C(=O)N[C@@H]([C@@H](C)c2cccc3ccccc23)C(=O)N[C@@H](CC(=O)O)C(=O)N1C [Example 31] (cyclo([Bip(4'-COOH)]W[Phe(4-COOH)]G[Pro(4R-NH2)][1Nal(3S-Me)]D[dNMeA]G[Bip(4'-COOH)]W[Dap][dA][hTyr])) | 0.0208

Same assay, conditions: inhibition of IL-1β induced IL-6 secretion in MRC5 cells; read-out: MRC5 IC50

SMILES | IC50 [nM]
CC(=O)NCCOc1ccc(C[C@@H]2NC(=O)[C@H](CCc3ccc(O)cc3)NC(=O)[C@@H](C)NC(=O)[C@H](CO)NC(=O)[C@H](Cc3c[nH]c4ccccc34)NC(=O)[C@H](Cc3ccc(-c4ccc(C(=O)O)cc4)cc3)NC(=O)CNC(=O)[C@@H](C)N(C)C(=O)[C@H](CC(=O)O)NC(=O)[C@H]([C@@H](C)c3c[nH]c4cccc(F)c34)NC(=O)[C@@H]3C[C@@H](N)CN3C(=O)CNC(=O)[C@H](Cc3ccc(C(=O)O)cc3)NC(=O)[C@H](Cc3c[nH]c4ccccc34)NC2=O)cc1 [Example 172] (cyclo([AEF](Ac)W[Phe(4-COOH)]G[Pro(4R-NH2)][Trp(βS-Me,4-F)]D[dNMeA]G[Bip(4'-COOH)]WS[dA][hTyr])) | 0.246
CC(=O)NCCOc1ccc(C[C@@H]2NC(=O)[C@H](CCc3ccc(O)cc3)NC(=O)[C@@H](C)N(C)C(=O)[C@H](CN)NC(=O)[C@H](Cc3c[nH]c4ccccc34)NC(=O)[C@H](Cc3ccc(-c4ccc(C(=O)O)cc4)cc3)NC(=O)CNC(=O)[C@@H](C)N(C)C(=O)[C@H](CC(=O)O)NC(=O)[C@H]([C@@H](C)c3cccc4ccccc34)NC(=O)[C@@H]3C[C@@H](N)CN3C(=O)CNC(=O)[C@H](Cc3ccc(C(=O)O)cc3)NC(=O)[C@H](Cc3c[nH]c4ccccc34)NC2=O)cc1 [Example 121] (cyclo([AEF](Ac)W[Phe(4-COOH)]G[Pro(4R-NH2)][1Nal(3S-Me)]D[dNMeA]G[Bip(4'-COOH)]W[Dap][dNMeA][hTyr])) | 0.085
CC(=O)N1CCN(c2ccc(C[C@@H]3NC(=O)[C@H](CCC4CCCCC4)NC(=O)[C@@H](C)NC(=O)[C@H](CC(C)C)NC(=O)[C@H](CCCCN)NC(=O)[C@H](Cc4ccc(-c5ccc(C(=O)O)cc5)cc4)NC(=O)CNC(=O)[C@@H](C)N(C)C(=O)[C@H](CC(=O)O)NC(=O)[C@H]([C@@H](C)c4cccc5ccccc45)NC(=O)[C@@H]4C[C@@H](N)CN4C(=O)CNC(=O)[C@H](Cc4ccc(C(=O)O)cc4)NC(=O)[C@H](Cc4c[nH]c5ccccc45)NC3=O)cc2)CC1 [Example 207] (cyclo([Phe(4-(4-Ac-piperazinyl))]W[Phe(4-COOH)]G[Pro(4R-NH2)][1Nal(3S-Me)]D[dNMeA]G[Bip(4'-COOH)]KL[dA][hCha])) | 0.011
CC(=O)NCCOc1ccc(C[C@@H]2NC(=O)[C@H](CCc3ccc(O)cc3)NC(=O)[C@@H](C)NC(=O)[C@H](CO)NC(=O)[C@H](Cc3c[nH]c4ccccc34)NC(=O)[C@H](Cc3ccc(-c4ccc(C(=O)O)cc4)cc3)NC(=O)CNC(=O)[C@@H](C)N(C)C(=O)[C@H](CC(=O)O)NC(=O)[C@H]([C@@H](C)c3cccc4ccccc34)NC(=O)[C@@H]3C[C@@H](N)CN3C(=O)CNC(=O)[C@H](Cc3ccc(C(=O)O)cc3)NC(=O)[C@H](Cc3c[nH]c4ccccc34)NC2=O)cc1 [Example 128] (cyclo([AEF](Ac)W[Phe(4-COOH)]G[Pro(4R-NH2)][1Nal(3S-Me)]D[dNMeA]G[Bip(4'-COOH)]WS[dA][hTyr])) | 0.09
CC(=O)NCCOc1ccc(C[C@@H]2NC(=O)[C@H](CCc3cccc(C(F)(F)F)c3)NC(=O)[C@@H](C)NC(=O)[C@H](CC(C)C)NC(=O)[C@H](CCCCN)NC(=O)[C@H](Cc3ccc(-c4ccc(C(=O)O)cc4)cc3)NC(=O)CNC(=O)[C@@H](C)N(C)C(=O)[C@H](CC(=O)O)NC(=O)[C@H]([C@@H](C)c3c[nH]c4cccc(Cl)c34)NC(=O)[C@@H]3C[C@@H](N)CN3C(=O)CNC(=O)[C@H](Cc3ccc(C(=O)O)cc3)NC(=O)[C@H](Cc3c[nH]c4ccccc34)NC2=O)cc1 [Example 137] (cyclo([AEF](Ac)W[Phe(4-COOH)]G[Pro(4R-NH2)][Trp(4-Cl)(βS-Me)]D[dNMeA]G[Bip(4'-COOH)]KL[dA][X8])) | 0.0938
CC(=O)NCCOc1ccc(C[C@@H]2NC(=O)[C@H](CCc3ccc(O)cc3)NC(=O)[C@@H](CCN)NC(=O)[C@H](CC(C)C)NC(=O)[C@H](Cc3c[nH]c4ccccc34)NC(=O)[C@H](Cc3ccc(-c4ccc(C(=O)O)cc4)cc3)NC(=O)CNC(=O)[C@@H](C)N(C)C(=O)[C@H](CC(=O)O)NC(=O)[C@H]([C@@H](C)c3c[nH]c4cccc(F)c34)NC(=O)[C@@H]3C[C@@H](N)CN3C(=O)CNC(=O)[C@H](Cc3ccc(C(=O)O)cc3)NC(=O)[C@H](Cc3c[nH]c4ccccc34)NC2=O)cc1 [Example 168] (cyclo([AEF](Ac)W[Phe(4-COOH)]G[Pro(4R-NH2)][Trp(βS-Me,4-F)]D[dNMeA]G[Bip(4'-COOH)]WL[dDab][hTyr])) | 0.0847
